This is an account of results in PMC5668678 (Biochemistry and Biophysics Reports, 2015).

One experiment has as its system KCNQ1-M3 chimera channel. Description: Patch clamp of KCNQ1-M3 chimera currents. Particulars: 1 μM ChTX, HEK293 cells, turret region mutant. Format: cell-based, human.
The next experiment concerns MmKv1 channel. The conditions noted are these: versus Kv1.3; ref [24]; cited from earlier work.
A further experiment deals with KCNQ1-M1 channel chimera. Nature of the experiment: Patch clamp of KCNQ1-M1 chimera currents. Format: cell-based, human. The conditions noted are these: 1 μM ChTX, HEK293 cells, turret and filter region mutant. On the technique in general: In patch-clamp work, channel activity is measured electrically.
The subject of another experiment is KCNQ1-K318M channel. Nature of the experiment: Patch clamp of KCNQ1 single residue mutant at Lys318, sensitivity to ChTX. It counts as cell-based, human. Particulars: site-directed mutant, HEK293 cells, Fig. 3.
Another experiment concerns MmKv2 channel. Particulars: ref [24]; cited from earlier work.
Another experiment relates to KCNQ1-M2 chimera channel. Nature of the experiment: Patch clamp of KCNQ1-M2 chimera currents. Particulars: 1 μM ChTX, HEK293 cells, filter region mutant. It counts as cell-based, human.
A further experiment deals with KCNQ1-Q321V channel. Nature of the experiment: Patch clamp of KCNQ1 single residue mutant at Q321, sensitivity to ChTX. Format: cell-based, human. The conditions noted are these: site-directed mutant, HEK293 cells, Fig. 3.

In the case of charybdotoxin [ChTX], the “inhibition of KCNQ1-M3 channel currents” value with KCNQ1-M3 chimera channel is on record as “not effectively inhibited”. Also, the “sensitivity of MmKv1 toward scorpion venom and ChTX, compared with Kv1.3” value with MmKv1 channel is listed as “weaker sensitivity”. Moreover, in the experiment on KCNQ1-M1 channel chimera, the “inhibition of KCNQ1-M1 channel currents” value was “effectively inhibited”. Further, the “effect of residue Lys318 on the binding of ChTX” value in the experiment on KCNQ1-K318M channel is “found to affect the binding of ChTX”. The “sensitivity of MmKv2 toward scorpion venom and ChTX” value in the experiment with MmKv2 channel is reported as “completely insensitive”. For the same substance, the “inhibition of KCNQ1-M2 channel currents” value with KCNQ1-M2 chimera channel is reported as “effectively inhibited”. Also, in the experiment on KCNQ1-Q321V channel, the “effect of residue Q321 on the binding of ChTX” value is “did not affect the binding of ChTX”.
